Assay [1] addresses GDP-bound HRAS wild-type protein (Homo sapiens, UniProt P01112). In words: Binding to HRAS by surface plasmon resonance (SPR), Single Cycle Kinetics. (SPR reads the build-up and loss of mass on a sensor chip optically.)
Assay [2] has as its target GDP-bound NRAS wild-type protein (Homo sapiens, UniProt P01111). As to the kind of experiment: Binding to NRAS by surface plasmon resonance (SPR), Single Cycle Kinetics.
In assay [3] the target is GDP-bound KRAS wild-type protein (Homo sapiens, UniProt P01116). In words: Binding to KRAS by surface plasmon resonance (SPR), Single Cycle Kinetics. The note with it: GDP-bound KRAS wild-type protein, read-out: KRAS KD.
Setting [4] is: SPR, GDP-bound HRAS wild-type protein vs GDP-bound KRAS wild-type protein.
[5] abbreviates: SPR, GDP-bound NRAS wild-type protein vs GDP-bound KRAS wild-type protein.
Where [6] appears, read: SPR, GDP-bound HRAS wild-type protein vs GDP-bound KRAS wild-type protein, KD ratio class.
Where [7] appears, read: SPR, GDP-bound NRAS wild-type protein vs GDP-bound KRAS wild-type protein, KD ratio class.
Where [8] appears, read: SPR, Single Cycle Kinetics, 1:1 binding model.
[9] abbreviates: SPR Single Cycle Kinetics, 1:1 binding model.

Molecules are shown by their SMILES. Read-outs that look alike come from different tables or passages of the source. Where a SMILES comes first, the peptide text is derived from it. Bridges are numbered along the chain shown (N, C = ends). [ ]: non-standard residue; d: D form. The star is where a group is joined. hPhe(3-Cl-4-CF3) = N[C@@H](CCc1ccc(C(F)(F)F)c(Cl)c1)C(=O)O; NEtPhe(4-Me) = CCN[C@@H](Cc1ccc(C)cc1)C(=O)O; NMePhe(4-Me) = CN[C@@H](Cc1ccc(C)cc1)C(=O)O; NMeGly(cPent) = CN[C@H](C(=O)O)C1CCCC1; NMeD = CN[C@@H](CC(=O)O)C(=O)O; NMeL = CN[C@@H](CC(C)C)C(=O)O; Morpholide = C1CN(*)CCO1; NMeA = CN[C@@H](C)C(=O)O; NMeAib = CNC(C)(C)C(=O)O; Nle = CCCC[C@H](N)C(=O)O; Piperidide = C1CCN(*)CC1; Ac5c = NC1(C(=O)O)CCCC1; Aze = O=C(O)[C@@H]1CCN1; NEtG = CCNCC(=O)O; Sar = CNCC(=O)O

The values that follow come from patent US20240158446A1, “CYCLIC COMPOUND HAVING SELECTIVE INHIBITORY ACTION ON KRAS OVER HRAS AND NRAS” (CHUGAI SEIYAKU KABUSHIKI KAISHA, priority 2021, published 2024).

Sequence of GDP-bound NRAS wild-type protein (P01111 whole entry): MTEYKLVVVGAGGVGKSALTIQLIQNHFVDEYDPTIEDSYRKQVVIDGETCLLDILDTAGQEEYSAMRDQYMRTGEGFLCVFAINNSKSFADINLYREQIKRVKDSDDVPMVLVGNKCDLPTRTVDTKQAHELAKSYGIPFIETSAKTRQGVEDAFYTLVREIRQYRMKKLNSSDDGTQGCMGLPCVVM
Sequence of GDP-bound KRAS wild-type protein (P01116 whole entry): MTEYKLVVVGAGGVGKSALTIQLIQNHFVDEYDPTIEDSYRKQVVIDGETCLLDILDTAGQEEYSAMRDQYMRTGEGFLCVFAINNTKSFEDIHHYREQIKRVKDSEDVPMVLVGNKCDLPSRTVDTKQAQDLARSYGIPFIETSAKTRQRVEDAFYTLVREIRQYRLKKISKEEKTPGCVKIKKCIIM
Sequence of GDP-bound HRAS wild-type protein (P01112 whole entry): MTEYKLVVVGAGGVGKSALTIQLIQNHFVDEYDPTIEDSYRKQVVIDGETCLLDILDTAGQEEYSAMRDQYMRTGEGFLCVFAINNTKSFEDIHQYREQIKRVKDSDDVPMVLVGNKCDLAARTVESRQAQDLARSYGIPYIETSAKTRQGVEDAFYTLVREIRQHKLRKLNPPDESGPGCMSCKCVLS

Take `CCO[C@@H]1C[C@H]2C(=O)NC3(CCC3)C(=O)N(C)[C@@H](C3CCCC3)C(=O)N(C)[C@H](C(=O)N3CCOCC3)CC(=O)N(C)[C@@H](COC)C(=O)N[C@@H]([C@@H](C)CC)C(=O)N3CC[C@H]3C(=O)N(C)[C@H]3CCCCCN(C3=O)[C@@H](Cc3ccc(C(F)(F)F)cc3)C(=O)N(C)CC(=O)N[C@@H](CCc3cc(F)c(C(F)(F)F)c(F)c3)C(=O)N2C1` [PP0863]: the “HRAS/KRAS (ratio of KD value for HRAS to KD value for KRAS)” value in assay [1] (setting [4]) was “B (a compound having 3 or more and less than 10 is denoted as B)”. In addition, the “NRAS/KRAS (ratio of KD value for NRAS to KD value for KRAS)” value in assay [2] (setting [5]) was “B (a compound having 3 or more and less than 10 is denoted as B)”. For the same compound, in assay [3] (SPR, Single Cycle Kinetics), the dissociation constant (Kd) (in general, a measure of binding affinity in units of concentration) was determined as 0.6 nM.

For the compound `CC[C@H](C)[C@@H]1NC(=O)[C@H](CC2CC2)N(C)C(=O)C[C@@H](C(=O)N2CCCC2)N(C)C(=O)[C@H](C2CCCC2)N(C)C(=O)C2(CCCC2)NC(=O)[C@@H]2C[C@@H](F)CN2C(=O)[C@H](CCc2cc(F)c(C(F)(F)F)c(F)c2)NC(=O)CN(C)C(=O)[C@H](Cc2ccc(C(F)(F)F)cc2)N2CC/C=C\C[C@@H](C2=O)N(C)C(=O)CN(C)C1=O` [PP1503], the “HRAS/KRAS (ratio of KD value for HRAS to KD value for KRAS)” value in assay [1] (setting [6]) was “A (a compound having 10 or more and less than 20 is denoted as A)”. Also, the “NRAS/KRAS (ratio of KD value for NRAS to KD value for KRAS)” value in assay [2] (setting [7]) was “A (a compound having 10 or more and less than 20 is denoted as A)”. For the same compound, the Kd in assay [3] (setting [8]) amounted to 0.11 nM.

Regarding `CCC[C@H]1C(=O)N[C@@H]([C@@H](C)CC)C(=O)N(C)CC(=O)N(C)[C@H]2C/C=C\CCN(C2=O)[C@@H](Cc2ccc(C(F)(F)F)cc2)C(=O)N(C)CC(=O)N[C@@H](CCc2ccc(CC)c(Cl)c2)C(=O)N2C[C@H](OCC)C[C@H]2C(=O)NC2(CC(C)(C)C2)C(=O)N(C)[C@@H](C2CCCC2)C(=O)N(C)[C@H](C(=O)N(C)C)CC(=O)N1C` [PP2848], the “HRAS/KRAS (ratio of KD value with respect to GDP-bound HRAS wild-type protein to KD value with respect to KRAS)” value in assay [1] (SPR KD ratio HRAS/KRAS, class symbols) is “A (a compound having 10 or more and less than 20 is denoted as A)”. Moreover, in assay [2] (SPR KD ratio NRAS/KRAS, class symbols), the “NRAS/KRAS (ratio of KD value with respect to GDP-bound NRAS wild-type protein to KD value with respect to KRAS)” value was “A (a compound having 10 or more and less than 20 is denoted as A)”. In addition, the equilibrium dissociation constant (Kd) in assay [3] (setting [9]) came to 0.47 nM.

Take `CC[C@H](C)[C@@H]1NC(=O)[C@H](CC(C)C)N(C)C(=O)C[C@@H](C(=O)N2CCOCC2)N(C)C(=O)[C@H](C2CCCC2)N(C)C(=O)C2(CCCC2)NC(=O)[C@@H]2CCCN2C(=O)[C@H](CCc2ccc(C(F)(F)F)c(Cl)c2)NC(=O)CN(C)C(=O)[C@H](Cc2ccc(Cl)cc2)N2CCCCC[C@@H](C2=O)N(C)C(=O)CN(C)C1=O` [PP0613]: the “HRAS/KRAS (ratio of KD value with respect to HRAS to KD value with respect to KRAS)” value in assay [1] (setting [4]) was “B (a compound having 3 or more and less than 10 is denoted as B)”. For the same compound, the “NRAS/KRAS (ratio of KD value with respect to NRAS to KD value with respect to KRAS)” value in assay [2] (setting [5]) is “B (a compound having 3 or more and less than 10 is denoted as B)”. In addition, the Kd in assay [3] (setting [9]) stood at 0.6 nM.

`CCO[C@@H]1C[C@H]2C(=O)NC3(CCC3)C(=O)N(C)[C@@H](C3CCCC3)C(=O)N(C)[C@H](C(=O)N(C)C)CC(=O)N(C)[C@@H](CC)C(=O)N[C@@H]([C@@H](C)CC)C(=O)N(C)CC(=O)N(C)[C@H]3CC/C=C(/C)CN(C3=O)[C@@H](Cc3ccc(C(F)(F)F)cc3)C(=O)N(C)CC(=O)N[C@@H](CCc3cc(F)c(C(F)(F)F)c(F)c3)C(=O)N2C1` [PP1334]: in assay [1] (setting [6]), the “HRAS/KRAS (ratio of KD value for HRAS to KD value for KRAS)” value is “B (a compound having 3 or more and less than 10 is denoted as B)”. In assay [2] (setting [7]), the “NRAS/KRAS (ratio of KD value for NRAS to KD value for KRAS)” value is “B (a compound having 3 or more and less than 10 is denoted as B)”. Moreover, the Kd in assay [3] (setting [8]) is 11 nM.

Consider `CCCC[C@@H]1NC(=O)[C@H](CCc2ccc(C(F)(F)F)c(Cl)c2)NC(=O)CN(C)C(=O)[C@H](Cc2ccc(C)cc2)N(CC)C(=O)[C@@H]2CCN2C(=O)[C@H](C)N(C)C(=O)[C@H]([C@@H](C)CC)NC(=O)[C@H](CC(C)C)N(C)C(=O)C[C@@H](C(=O)N2CCCCC2)N(C)C(=O)[C@H](CC(C)C)NC(=O)C(C)(C)N(C)C1=O` [PP0048] ([NMeL]I[NMeA][Aze][NEtPhe(4-Me)][Sar][hPhe(3-Cl-4-CF3)][Nle][NMeAib]L[NMeD]-Piperidide; lactam N-11), for which, in assay [1] (setting [4]), the “HRAS/KRAS (ratio of KD value for HRAS to KD value for KRAS)” value is “C (A compound having a KD ratio of 0.1 or more and less than 3 is denoted as C)”. In addition, the “NRAS/KRAS (ratio of KD value for NRAS to KD value for KRAS)” value in assay [2] (setting [5]) was “C (A compound having a KD ratio of 0.1 or more and less than 3 is denoted as C)”. The dissociation constant Kd in assay [3] (setting [9]) amounted to 63 nM.

In the case of `CC[C@H](C)[C@@H]1NC(=O)[C@H](CC(C)C)N(C)C(=O)C[C@@H](C(=O)N2CCOCC2)N(C)C(=O)[C@H](C2CCCC2)N(C)C(=O)C2(CCCC2)NC(=O)[C@@H]2CCCN2C(=O)[C@H](CCc2ccc(C(F)(F)F)c(Cl)c2)NC(=O)CN(C)C(=O)[C@H](Cc2ccc(C)cc2)N(C)C(=O)CN(CC)C(=O)CN(C)C1=O` [PP0019] ([NMeL]I[Sar][NEtG][NMePhe(4-Me)][Sar][hPhe(3-Cl-4-CF3)]P[Ac5c][NMeGly(cPent)][NMeD]-Morpholide; lactam N-11), in assay [1] (setting [4]), the “HRAS/KRAS (ratio of KD value for HRAS to KD value for KRAS)” value is “C (A compound having a KD ratio of 0.1 or more and less than 3 is denoted as C)”. Moreover, the “NRAS/KRAS (ratio of KD value for NRAS to KD value for KRAS)” value in assay [2] (setting [5]) is “C (A compound having a KD ratio of 0.1 or more and less than 3 is denoted as C)”. For the same compound, the equilibrium dissociation constant (Kd) in assay [3] (setting [9]) turned out to be 0.34 nM.
